Test results published in US12173188B2, “Ultraviolet absorbing agent, ultraviolet absorbing composition, ultraviolet absorbing film, laminate, and novel compound” (FUJIFILM CORPORATION, priority 2019, dated 2024).

What was measured:
[1] = Light fastness of laminate, metal halide lamp irradiation; type: physicochemical; conditions: change in transmittance at 380 nm after 60 hours metal halide lamp, 90 mW/cm^2, 63° C., 50% RH
Protocol: First, the transmittance of the obtained laminate of the glass plate and the ultraviolet absorbing film at a wavelength of 380 nm was measured using a spectrophotometer (model number: UV 3150) manufactured by Shimadzu Corporation.
Next, using a super-accelerated weather fastness tester [product name: EYE SUPER UV Tester, IWASAKI ELECTRIC Co., Ltd.], the obtained laminate of the glass plate and the ultraviolet absorbing film was irradiated with light (about 290 nm […]) of a metal halide lamp for 60 hours under the conditions of an illuminance of 90 mW/cm^2 ([…]), a temperature of 63° C., and a relative humidity of 50%.
After light irradiation, the transmittance of the obtained laminate of the glass plate and the ultraviolet absorbing film at a wavelength of 380 nm was measured in the same manner as described above using a spectrophotometer (model number: UV 3150) manufactured by Shimadzu Corporation.
The width of change in transmittance at a wavelength of 380 nm before and after the light irradiation was calculated, and the light fastness was evaluated as “particularly good” in a case where the width of change was less than 5%, the light fastness was evaluated as “good” in a case where the width of change was 5% or more and less than 10%, and the light fastness was evaluated as “bad” in a case where the width of change was 10% or more.

[2] = Moist heat resistance test of laminate (60° C., 90% RH, 160 hours); type: physicochemical; conditions: for Haze after moist heating: after 160 hours at 60° C.; for Haze after moist heating / Moist heat resistance: 90% RH; for Moist heat resistance: change in transmittance at 380 nm after 160 hours at 60° C.
Protocol: The moist heat test was carried out with a constant temperature and humidity device (IG420, manufactured by Yamato Scientific Co., Ltd.) under the conditions of a temperature of 60° C. and a humidity of 90% RH. The transmittance at 380 nm after the lapse of 160 hours was measured by the above method. The width of change in transmittance at a wavelength of 380 nm before and after the moist heat resistance test was calculated, and the moist heat resistance was evaluated as “particularly good” in a case where the width of change was less than 5%, the moist heat resistance was evaluated as “good” in a case where the width of change was 5% or more and less than 10%, and the moist heat resistance was evaluated as “bad” in a case where the width of change was 10% or more.
The haze after the moist heat resistance test was measured by the same method as in (2. Initial haze) described above.

[3] = Solubility in distilled water at 25° C.; conditions: 24 hours standing
Protocol: The solubility of the specific ultraviolet absorbing agent in water in the present disclosure can be measured by the following method from the amount of the specific ultraviolet absorbing agent dissolved in 10 g of distilled water at 25° C.
After mixing 10 g of distilled water with 1 g of the specific ultraviolet absorbing agent, the resultant mixture is irradiated with ultrasonic waves at a liquid temperature of 25° C. for 15 minutes and then allowed to stand for 24 hours while the liquid temperature is maintained at 25° C. For ultrasonic irradiation, a desktop ultrasonic cleaner 1510, manufactured by Branson Ultrasonics, Emerson Japan, Ltd. is used.
After being allowed to stand for 24 hours, filtration is carried out through a membrane filter (0.1 μm mesh, manufactured by [sequence] Co., Ltd.). The unfiltered specific ultraviolet absorbing agent is collected, dried, and then weighed. The amount of the unfiltered specific ultraviolet absorbing agent is subtracted from 1 g of the specific ultraviolet absorbing agent to obtain an amount of the specific ultraviolet absorbing agent dissolved in water, and the solubility of the specific ultraviolet absorbing agent in water is calculated from that the obtained amount value.

[4] = Maximum absorption wavelength by spectrophotometer; type: physicochemical; conditions: H2O
Protocol: The maximum absorption wavelength of the ultraviolet absorbing agent can be measured, for example, using a spectrophotometer. Examples of the device include a spectrophotometer UV3600 and an ultraviolet-visible-near infrared spectrophotometer UV 3150, manufactured by Shimadzu Corporation. In the present disclosure, the maximum absorption wavelength of the ultraviolet absorbing agent is measured using a spectrophotometer UV3600.
The measurement is carried out at room temperature (25° C.), and the absorbance is measured using a spectrophotometer to obtain an absorption spectrum while air is referenced as a control as the measurement condition.
In a case where an absorbance at a wavelength in a predetermined wavelength range is measured, the maximum absorption wavelength, the transmittance, and the like can be calculated.

[5] = Molar absorption coefficient in pure water; type: physicochemical; conditions: 1.0 mg in 100 mL pure water, 1 cm cell, at maximum absorption wavelength; in L/(mol·cm) (unit assumed)
Protocol: After dissolving 1.0 mg of a sample in 100 mL of pure water, the absorbance of the aqueous solution was measured in a 1 cm cell using a spectrophotometer (model number: UV 3150) manufactured by Shimadzu Corporation. From the measurement results, the molar absorption coefficient was calculated from the value of the absorbance at the maximum absorption wavelength using the Lambert-Beer law.

[6] = 5.0 parts agent/45.0 parts PVA film
[7] = 2.0 parts agent/98.0 parts PVA film

Question: Which Light fastness [1, 6] does the source give for O=C(c1ccc(O)cc1O)c1ccc(O)cc1O [Compound H-1, reference compound] here?
Answer: Its Light fastness is “Bad (the width of change was 10% or more)”.

Question: And the Haze after moist heating [2, 6]?
Answer: Its Haze after moist heating is 6.1%.

Question: And the Moist heat resistance [2, 6]?
Answer: The Moist heat resistance was “Bad (the width of change was 10% or more)”.

Question: For O=S(=O)([O-])CCNc1nc(NCCS(=O)(=O)[O-])nc(Nc2ccc(C=Cc3ccc(Nc4nc(NCCS(=O)(=O)[O-])nc(NCCS(=O)(=O)[O-])n4)cc3S(=O)(=O)[O-])c(S(=O)(=O)[O-])c2)n1.[Na+].[Na+].[Na+].[Na+].[Na+].[Na+] [Compound H-3, reference compound], which Light fastness [1, 6] is on record?
Answer: The Light fastness was “Bad (the width of change was 10% or more)”.

Question: And the Haze after moist heating [2, 6]?
Answer: Its Haze after moist heating is 9.5%.

Question: What about the Moist heat resistance [2, 6] of the same molecule?
Answer: The Moist heat resistance was “Bad (the width of change was 10% or more)”.

Question: Which results are given for CCCCN1C(=O)C(=C2Sc3c(OCCCCS(=O)(=O)[O-])c4c(c(OCCCCS(=O)(=O)[O-])c3S2)SC(=C2C(=O)N(CCCC)N(CCCC)C2=O)S4)C(=O)N1CCCC.[Na+].[Na+] [Compound H-4, reference compound]?
Answer: Light fastness [1, 6]: Good (the width of change was 5% or more and less than 10%); Haze after moist heating [2, 6]: 18%; Moist heat resistance [2, 6]: Bad (the width of change was 10% or more); haze after the moist heat resistance test ([2]; in words, summary of Table 1): significantly increased

Question: For CCCCC(CC)COc1ccc(OCC(CC)CCCC)c2c1SC(=C1C(=O)N(CCCC)N(CCCC)C1=O)S2 (centres unmarked) [Compound H-5, reference compound], which Light fastness [1, 6] is on record?
Answer: Its Light fastness is “Bad (the width of change was 10% or more)”.

Question: And the Haze after moist heating [2, 6]?
Answer: Its Haze after moist heating is 68%.

Question: What about the Moist heat resistance [2, 6] of the same molecule?
Answer: Its Moist heat resistance is “Bad (the width of change was 10% or more)”.

Question: With CC(C)(C)C(=O)C(C#N)=C1Sc2c(OCCCCS(=O)(=O)[O-])ccc(OCCCCS(=O)(=O)[O-])c2S1.[Na+].[Na+] [Compound M-1] as the molecule, how does the “Solubility (25° C.)” value [3] read?
Answer: Its value is 3.2 % by mass.

Question: With N#CC(C(=O)c1ccccc1)=C1Sc2c(OCCCS(=O)(=O)[O-])ccc(OCCCS(=O)(=O)[O-])c2S1.[Na+].[Na+] [Compound M-2] as the molecule, how does the “Solubility (25° C.)” value [3] read?
Answer: The value was 2.9 % by mass.

Question: With N#CC(C#N)=C1Sc2c(OCCCCS(=O)(=O)[O-])ccc(OCCCCS(=O)(=O)[O-])c2S1.[Na+].[Na+] [Compound M-3] as the molecule, how does the “Solubility (25° C.)” value [3] read?
Answer: Its value is 3.1 % by mass.

Question: And the Light fastness [1, 7]?
Answer: Its Light fastness is “Particularly good (the width of change was less than 5%)”.

Question: And the Light fastness [1, 6]?
Answer: The Light fastness was “Particularly good (the width of change was less than 5%)”.

Question: And the Haze after moist heating [2, 7]?
Answer: Its Haze after moist heating is 0.1%.

Question: And the Haze after moist heating [2, 6]?
Answer: The Haze after moist heating was 0.24%.

Question: What about the Moist heat resistance [2, 7] of the same molecule?
Answer: Its Moist heat resistance is “Particularly good (the width of change was less than 5%)”.

Question: What about the Moist heat resistance [2, 6] of the same molecule?
Answer: The Moist heat resistance was “Particularly good (the width of change was less than 5%)”.

Question: And the Maximum absorption wavelength [4]?
Answer: The Maximum absorption wavelength was 372 nm.

Question: And the Molar absorption coefficient [5]?
Answer: Its Molar absorption coefficient is 28,100.

Question: For CON=CC(C#N)=C1Sc2c(OCCCCS(=O)(=O)[O-])ccc(OCCCCS(=O)(=O)[O-])c2S1.[Na+].[Na+] [Compound M-5], which “Solubility (25° C.)” value [3] is on record?
Answer: The value was 3.1 % by mass.

Question: What about the Light fastness [1, 6] of the same molecule?
Answer: Its Light fastness is “Particularly good (the width of change was less than 5%)”.

Question: What about the Haze after moist heating [2, 6] of the same molecule?
Answer: The Haze after moist heating was 0.28%.

Question: And the Moist heat resistance [2, 6]?
Answer: The Moist heat resistance was “Particularly good (the width of change was less than 5%)”.

Question: What about the Maximum absorption wavelength [4] of the same molecule?
Answer: Its Maximum absorption wavelength is 390 nm.

Question: What about the Molar absorption coefficient [5] of the same molecule?
Answer: Its Molar absorption coefficient is 27,400.

Question: With N#CC(C#N)=C1Sc2c(OCCCCP(=O)(O)O)ccc(OCCCCP(=O)(O)O)c2S1 [Compound M-7] as the molecule, how does the “Solubility (25° C.)” value [3] read?
Answer: Its value is 2.0 % by mass.

Question: What does the source list for N#CC(C#N)=C1Sc2c(OC(=O)CCC(=O)[O-])ccc(OC(=O)CCC(=O)[O-])c2S1.[Na+].[Na+] [Compound M-8]?
Answer: Solubility (25° C.) [3]: 2.6 % by mass; Light fastness [1, 7]: Particularly good (the width of change was less than 5%); Light fastness [1, 6]: Particularly good (the width of change was less than 5%); Haze after moist heating [2, 7]: 0.3%; Haze after moist heating [2, 6]: 0.4%; Moist heat resistance [2, 7]: Particularly good (the width of change was less than 5%); Moist heat resistance [2, 6]: Good (the width of change was 5% or more and less than 10%)

Question: With CCCCOc1ccc(OCCCC)c2c1SC(=C(C#N)C(=O)OCCCCS(=O)(=O)[O-])S2.[Na+] [Compound M-9] as the molecule, how does the “Solubility (25° C.)” value [3] read?
Answer: Its value is 2.1 % by mass.

Question: For CCCCOc1ccc(OCCCC)c2c1SC(=C(C#N)C(=O)OCCCCP(=O)(O)O)S2 [Compound M-10], which “Solubility (25° C.)” value [3] is on record?
Answer: The value was 1.9 % by mass.

Question: For CCCCN1C(=O)C(=C2Sc3c(OCCCCS(=O)(=O)[O-])ccc(OCCCCS(=O)(=O)[O-])c3S2)C(=O)N1CCCC.[Na+].[Na+] [Compound M-11], which Light fastness [1, 7] is on record?
Answer: Its Light fastness is “Particularly good (the width of change was less than 5%)”.

Question: And the Light fastness [1, 6]?
Answer: The Light fastness was “Particularly good (the width of change was less than 5%)”.

Question: What about the Haze after moist heating [2, 7] of the same molecule?
Answer: Its Haze after moist heating is 0.1%.

Question: And the Haze after moist heating [2, 6]?
Answer: The Haze after moist heating was 0.26%.

Question: And the Moist heat resistance [2, 7]?
Answer: The Moist heat resistance was “Particularly good (the width of change was less than 5%)”.

Question: And the Moist heat resistance [2, 6]?
Answer: The Moist heat resistance was “Particularly good (the width of change was less than 5%)”.

Question: And the Maximum absorption wavelength [4]?
Answer: Its Maximum absorption wavelength is 387 nm.

Question: And the Molar absorption coefficient [5]?
Answer: Its Molar absorption coefficient is 35,900.

Question: With CCCCN1C(=O)C(=C2Sc3c(OCCCS(=O)(=O)[O-])ccc(OCCCS(=O)(=O)[O-])c3S2)C(=O)N1CCCC.[Na+].[Na+] [Compound M-12] as the molecule, how does the “Solubility (25° C.)” value [3] read?
Answer: The value was 3.6 % by mass.

Question: With O=C1C(=C2Sc3c(OCCCCS(=O)(=O)[O-])ccc(OCCCCS(=O)(=O)[O-])c3S2)C(=O)N(c2ccccc2)N1c1ccccc1.[Na+].[Na+] [Compound M-13] as the molecule, how does the “Solubility (25° C.)” value [3] read?
Answer: The value was 3.3 % by mass.

Question: With CCCCOc1ccc(OCCCCS(=O)(=O)[O-])c2c1SC(=C1C(=O)N(CCCCS(=O)(=O)[O-])N(CCCCS(=O)(=O)[O-])C1=O)S2.[Na+].[Na+].[Na+] [Compound M-14] as the molecule, how does the “Solubility (25° C.)” value [3] read?
Answer: The value was 3.7 % by mass.

Question: Which “Solubility (25° C.)” value [3] does the source give for CCCCC(CC)COc1ccc(OCC(CC)CCCC)c2c1SC(=C1C(=O)N(CCCCS(=O)(=O)[O-])N(CCCCS(=O)(=O)[O-])C1=O)S2.[Na+].[Na+] (centres unmarked) [Compound M-15] here?
Answer: The value was 2.9 % by mass.

Question: With O=C1C(=C2Sc3c(OCCS(=O)(=O)[O-])ccc(OCCS(=O)(=O)[O-])c3S2)C(=O)N(CCCS(=O)(=O)[O-])N1CCCS(=O)(=O)[O-].[Na+].[Na+].[Na+].[Na+] [Compound M-16] as the molecule, how does the “Solubility (25° C.)” value [3] read?
Answer: Its value is 2.9 % by mass.

Question: Which “Solubility (25° C.)” value [3] does the source give for CCCCN1C(=O)C(=C2Sc3c(OCCCCP(=O)(O)O)ccc(OCCCCP(=O)(O)O)c3S2)C(=O)N1CCCC [Compound M-17] here?
Answer: Its value is 3.0 % by mass.

Question: With CCCCOc1ccc(OCCCC)c2c1SC(=C1C(=O)N(CCCCP(=O)(O)O)N(CCCCP(=O)(O)O)C1=O)S2 [Compound M-19] as the molecule, how does the “Solubility (25° C.)” value [3] read?
Answer: Its value is 3.0 % by mass.

Question: For CCCCOc1ccc(OCCCC)c2c1SC(=C1C(=O)N(CCCCC(=O)[O-])N(CCCCC(=O)[O-])C1=O)S2.[Na+].[Na+] [Compound M-20], which “Solubility (25° C.)” value [3] is on record?
Answer: Its value is 2.9 % by mass.
